The subject of assay [1] is H1299 cells. Put plainly: Adhesion assay. It counts as cell-based, human. The note with it: H1299, fibronectin- and vitronectin-coated wells. The method, then: (§1) Adhesion Assay. 96-well plates were coated with 15 ng/μl fibronectin (Sigma, St. Louis, Mo.) at 4° C. overnight, then blocked with 0.5% BSA in PBS for 1 h. After starving with serum-free medium for 3 h, H1299 or MDA-MB-231 (2.5×10^5 cells/ml) were trypsinized and suspended in 100 μl of 0.1% FBS medium with various concentrations of uPAR compounds or DMSO control at 37° C. for 90 min. Medium was then carefully suctioned out from each well. Each well was washed three times with PBS. MTT-assay was used to determine the number of remaining cells (adherent cells).
(§2) The numbers of attached cells were quantified by MTT assay. Adherent cells are also quantified with fluorescence. […] The lack of inhibition was found both on fibronectin- and vitronectin-coated wells.

Assay [2] has as its system MDA-MB-231 cells. Put plainly: Adhesion assay. The class given is cell-based, human. The note with it: MDA-MB-231, fibronectin- and vitronectin-coated wells. The method, then: as §1, §2
Assay [3] relates to H1299 cells. Briefly: Wound healing assay. The class given is cell-based. The note with it: Homo sapiens, NCI-H1299, read-out: migration IC50. The protocol: (§3) Wound Healing Assay. Confluent cell monolayers in 12-well plates were wounded by scraping with a micropipette tip. The cells were washed and then cultured in complete media containing the compounds. The degree of wound closure was assessed in three randomly chosen regions by measuring the distance between the wound edges just after wounding and after 16 h under Nikon Diaphot 300 microscope.
(§4) Without being bound by theory, it is believed that, to invade neighboring tissue, cells must acquire additional motility, although invasion and migration may proceed through different mechanisms. […] The first uses the Boyden chamber apparatus to assess the effect of compound on migration primarily mediated by chemotaxis. […] The other approach to test for effects on migration was the wound healing assay, which probes migration mediated by a concentration gradient established by the wound. It is also not as sensitive to potential cytotoxic effects.

For assay [4], the system named is MDA-MB-231 cells. Briefly: Wound healing assay. The class given is cell-based. As to conditions: Homo sapiens; MDA-MB-231, wound healing; read-out: migration IC50. The method, then: as §3, §4
The test system of assay [5] is H1299 cells. Put plainly: Invasion assay (Matrigel invasion chamber). It counts as cell-based, human. The protocol: (§5) Invasion Assay. Invasion assays are performed using the Biocoat Matrigel invasion chamber (BD Biosciences, Bedford, Mass.) according to the manufacturer's protocol. The undersurface of the inserts were coated with 30 ng/μl of fibronectin at 4° C. overnight. The filters were equilibrated with 0.5 ml serum-free medium for 2 h. After 4 h of serum starvation, cells were harvested and 5×10^4 cells/500 μl were plated onto the upper chamber of a Transwell filter in medium containing 0.1% FBS and the indicated compounds. 500 μl of 10% FBS medium containing the same amount of compounds or DMSO control were added to the lower chamber. After a 24 h incubation at 37° C. in 5% CO2, the filters were fixed and the number of cells that had invaded was determined as described for the migration assay.
(§6) Testing of the effects of IPR-465 on processes critical for metastasis in cell culture, starting with invasion, was undertaken. A Boyden chamber apparatus was used and results are shown in FIG. 3(a), where the bar groups correspond, from left to right, to H1299 invasion, H1299 cytotoxicity, MDA-MB-231 invasion, MDA-MB-231 cytotoxicity, and in FIG. 3(b), where the bar groups correspond, from left to right, to H1299 Boyden Chamber, H1299 wound healing, H1299 cytotoxicity, MDA-MB-231 Boyden Chamber, MDA-MB-231 wound healing, MDA-MB-231 cytotoxicity.
(§7) Ten fields of unit area on each membrane were counted for cell numbers (magnification, 200×). […] The effect of the compound appears to be more pronounced in MDA-MB-231 cells compared with H1299. The level of toxicity of the compounds is measured at each concentration within the timescale of the invasion experiment to ensure that the observed effects are not due to cytotoxicity (FIG. 3(a)).
(§8) MDA-MB-231 cells were transfected with siRNAs for uPAR, control siRNA (control) or with transfection reagent only (mock). After 48 h, cells were lysed and analysed by immunoblotting.

For assay [6], the system named is MDA-MB-231 cells. Put plainly: Invasion assay (Matrigel invasion chamber). It counts as cell-based, human. The method, then: as §5, §6, §7, §8

“Also recorded” adds a separate entry of the source.

As for `CC1CC(C)CN(c2cc(Nc3ccccc3C(=O)O)c3c4c(onc24)-c2ccccc2C3=O)C1` (stereo not shown) [IPR-456], the cell adhesion result in assay [1] and in assay [2] was “no effect on cell adhesion; also recorded: lack an effect” throughout. In addition, the IC50 in assay [3] was ~150 µM; in assay [4], ~150 µM; in assay [5] (Homo sapiens, NCI-H1299), ~50 µM; in assay [6] (Homo sapiens, MDA-MB-231), ~50 µM. Also, the “number of cells able to invade through the membrane” value in assay [5] (H1299) and in assay [6] (MDA-MB-231) was “dose-dependent reduction” throughout. Also, the influence on invasion entry in assay [5] (H1299 with siRNA knockdown of uPAR) and in assay [6] (MDA-MB-231 with siRNA knockdown of uPAR) was “no additional influence on invasion” throughout.

For the origin of these results see patent US9376406B2, “uPAR-uPA interaction inhibitors and methods for treating cancer” (Indiana University Research and Technology Corporation, priority 2011, dated 2016).
